# Experimental data published in a melting point compilation (Tetko et al.; mined from patent text by program, amines drawn as free bases though some values may be those of a salt).
row,SMILES,melting point
1,CCCc1ccc2nc(Cl)c(S(N)(=O)=O)n2n1,174 to 175 °C
2,CCCCCCCCc1c(CCCCCCCC)c(-c2ccccc2)n(-c2ccc(C)cc2)c1-c1ccccc1,100 to 101 °C
3,Cc1ccn2c(C)c(-c3ccc4c(c3)N(C)C(=O)CS4)nc2c1,231 °C
4,O=C(O)CCSCC(=O)c1cc2[nH]c(=O)[nH]c2cc1Cl,186 to 187 °C
5,O=C(Cl)C=Cc1ccc(Cl)cc1,78 to 80 °C
6,NS(=O)(=O)c1nc2ccc(OCC3CO3)cc2s1 (centres undefined),149 to 152 °C
7,CCOC(=O)C(=CNC(C)(C)C)C(=O)c1cc(F)c(Cl)cc1Cl,87 °C
8,Cc1coc2c(c1=O)N(C)S(=O)(=O)c1ccccc1-2,214 to 216 °C
9,COC(=O)c1sc(C)c2[nH]c(C(F)(F)C(F)(F)F)nc12,156 to 157 °C
10,Cc1cc(C(C)(C)C)cc(C=NO)c1O,107 to 108 °C
11,COC(=O)C12COc3cc(C(F)(F)F)ccc3C1=NN(C(=O)Nc1ccc(Cl)cn1)C2 (centres undefined),196 to 198 °C
12,COC(=O)C(O)c1cc(F)cc(F)c1 (centres undefined),61.8 °C
13,CCCCCCCCCCCCCCOc1ccc(C(=O)O)cc1,95 to 99 °C
14,COC(=O)C1CC2c3cccc4[nH]cc(c34)CC2N(C(C)C)C1 (centres undefined),193 to 195 °C
15,CCn1c(Cl)c(C=O)c(=O)n(CC)c1=O,88 to 89 °C
16,CCOc1cccc(N(C(=O)CCC(=O)O)c2cc(C(C)(C)C)c(O)c(C(C)(C)C)c2)c1,128 to 130 °C
17,CCc1c(C(C)(C)C)cc(C(C)(C)C)c(O)c1C(=O)Nc1ccc(S(=O)(=O)C(F)(F)F)cc1Cl,157 to 158 °C
18,CN(C)c1c(C#N)cnc2c(NC(=O)c3c(Cl)cccc3Cl)cccc12,227 to 228 °C
19,CCOC(=O)Cn1nnc2cc(-c3ncc(C(F)(F)F)cc3Cl)ccc21,127 to 129 °C
20,CCCCCCCCCCS(=O)(=O)c1ccc(O)c(C(=O)Nc2cccc(C(F)(F)F)c2)c1,108 to 109 °C
21,CSc1ncnn1C[C@]1(c2ccc(F)cc2)O[C@@H]1c1cccc(Cl)c1F (relative stereo),88 °C
22,O=C(Nc1cc(S(=O)(=O)NC(CO)CO)sc1Cl)c1cnn2c(C(F)F)cc(-c3ccc(C(F)(F)F)cc3)nc12,241 °C
23,COc1nc2cc([N+](=O)[O-])c(C)c(C(=O)Cl)c2nc1OC,162 to 164 °C
24,CCCCCCCCCCCCCCCCCCN(C)c1ccc(N)cc1C(=O)O,81 to 83 °C
25,CCC(=O)N(CC)c1cccc(-c2ccnc3c(C(=O)c4ccccc4)cnn23)c1,194 to 195 °C
26,COc1cc(C)nc(N=C=S)n1,54 to 55 °C
27,CNC(=O)C1=CC(C)(C(F)(F)F)Oc2ccc([N+](=O)[O-])cc21 (centres undefined),196 to 197 °C

row,SMILES,melting point
1,CCOC(=O)c1cn(-c2cc(N)c(F)cc2F)c2c(OC)c(F)c(F)cc2c1=O,159 to 162 °C
2,COCc1c(C(=O)OC)c2cc(O)ccc2n1C,168 to 170 °C
3,NCc1ccn(C2=CC3=C(CC2)CCc2[nH]c(=O)c(=O)n(OCC(=O)O)c23)c1,> 300 °C
4,COC(=O)c1cccc2nc(SCCCCCC(=O)Nc3c(SC)cc(C)nc3SC)oc12,141 to 142 °C
5,O=Cc1ccc2sc(=O)[nH]c2c1,140 to 142 °C
6,CC[C@H](C)CCCCc1cnc(-c2ccc(OC(C)C)cc2)nc1,47.2 to 47.7 °C
7,CSc1c(Cl)ccc(C(=O)O)c1SC,130 to 131 °C
8,"CCOc1ccccc1OCC(O)CN (single isomer, unassigned; (-))",87 °C
9,CCC(C)(C)C1CC=C(C(=O)O)CC1 (centres undefined),123 to 125 °C
10,COC(=O)c1cc(-c2nc(CCl)c(C)o2)ccc1C,89 to 90 °C
11,N#Cc1cc(F)ccc1N1CCNCC1,83 to 83.5 °C
12,CCOc1nsc(NC(=O)NC)c1C(N)=O,240 to 241 °C
13,CCSc1nsc(NC(=O)N(C)C)c1C(N)=O,147 °C
14,CCCCCc1ccc(NC2=NCCS2)cc1,77 to 78 °C
15,CS(=O)(=O)c1c(N)nc(N)nc1Cl,256 to 258 °C
16,C=CCN1CCC23c4c5ccc(O)c4OC2C(=NO)CCC3(O)C1C5 (centres undefined),119 °C
17,CC(C)(C)Nc1c(NCc2cc3cc([N+](=O)[O-])ccc3o2)c(=O)c1=O,> 300 °C
18,CC1CC(=O)NN=C1c1ccc(-n2ccnc2)nc1 (centres undefined),140 °C
19,CCCCOc1n[nH]c(=O)n1C,77 °C
20,CN(C)C=Nc1nc(=O)n(-c2ccsc2)cc1F,211 to 213 °C
21,CCN1C(=O)C=C(c2ccc(Cl)c(Cl)c2)C1=O,138 to 141 °C
22,Cc1cccc(-c2cc(C(=O)O)n(C)n2)c1,150 to 153 °C
23,CCCCCCCCCCCCNC(=O)COc1ccc(O)cc1[N+](=O)[O-],150 to 151 °C
24,Cc1ccc(Cl)nc1N1CCCNC1=C[N+](=O)[O-],176 to 183 °C
25,CC(=O)NCc1c(O)cc2c3c(cccc13)C(=O)N(O)C2=O,268 to 272 °C
26,Oc1nc2ccc3nonc3c2nc1O,> 300 °C

# The remaining lines, values ahead:
row,melting point,SMILES
1,140 to 141 °C,c1ccc(COc2cc3cc(-c4ccccc4)[nH]c3cc2OCc2ccccc2)cc1
2,177 to 180 °C,COc1ccc(N2CCN(c3cc4c(cc3-c3cccnc3)OC(C)(C)C4)CC2)cc1
3,44 to 54 °C,CC(=O)CC(=O)OC(c1ccccc1)c1ccccc1
4,119 to 120 °C,COc1ccc(OCCC2CCN(c3cc(Cl)nnc3Cl)CC2)cc1
5,73 to 75 °C,CC(C)n1c(/C=C/[C@H]2C[C@H](CC(=O)OC(C)(C)C)OC(C)(C)O2)c(-c2ccc(F)cc2)c(-c2ccccc2)c1C(N)=O
6,200 to 202 °C,COc1cc(-c2ccc(N3CCCN(c4ccc(-c5cc(OC)c(O)c(OC)c5)cn4)CC3)nc2)cc(OC)c1O
7,129 to 131 °C,COc1cc(C(=O)O)ccc1Cc1cn(CCC(N)=O)c2ccc(C(=O)NCC3CCCC3)cc12
8,212 to 214 °C,COc1nccc(-c2c(-c3ccc(F)cc3)ncn2C2CCC(=O)CC2)n1
9,150 to 151 °C,COc1cc(CCl)ccc1OCc1nc(-c2cccc(C#N)c2)oc1C
10,244 to 246 °C,CC(=O)Nc1c(C(=O)c2ccccc2)[nH]c2cc(C#N)ccc12
11,> 350 °C,CC(C)(C)NC(=O)Nc1nc2nc(N)ncc2cc1-c1ccncc1
12,113 to 115 °C,Cc1ccc([C@H](CC(=O)O)NC(=O)Nc2c(O)ccn(Cc3ccccc3Cl)c2=O)cc1
13,84 to 87 °C,CC(=O)n1c(C)c(-c2ccc(F)cc2)c2cccnc21
14,274 to 275 °C,CCn1cc(C(=O)NN)c(=O)c2ccc(-c3ccncc3)cc21
15,209 °C,CCS(=O)(=O)c1cc(C(=O)NCC2CCCN2CCC2CC2)c(OC)cc1N (centres undefined)
16,135 to 137 °C,CCOc1cc2cc(CO)cc(-c3ccnc(Cl)c3)c2cc1OCC
17,> 240 °C,CC(C)c1ccc2c(=O)cc(C(=O)O)[nH]c2c1
18,134 to 140 °C,Cc1ccc(C(SCCN(C)CCCCN=C(NC#N)NCCSCc2csc(NC(=N)N)n2)c2ccccc2)cc1 (centres undefined)
19,122 to 124 °C,Cc1ccc(S(=O)(=O)OCC2COc3ccc4ccccc4c3O2)cc1 (centres undefined)
20,142 to 144 °C,COc1cccc(OC)c1-c1ccc(C[C@H](NC(=O)c2c(Cl)cccc2Cl)C(=O)O)cc1NC(C)=O
21,156 to 157 °C,CC(C)(CNc1ccnc2cc(Cl)ccc12)NCc1cccc(C(F)(F)F)c1
22,111 to 112 °C,CC(=Cc1ccc([N+](=O)[O-])cc1)C(=O)Oc1ccc(Cl)cc1
23,58 to 60 °C,CC(=O)c1cc(Cl)cc(Oc2ncccc2C(=O)NCc2ccc(C(C)(C)O)cc2Cl)c1

row,melting point,SMILES
1,200 to 202 °C,O=C(Nc1cccc2c(=O)cc(-c3nnn[nH]3)oc12)c1ccc2c(c1)CC(COCc1ccccc1)O2 (centres undefined)
2,110 to 113 °C,COC(=O)CN(NC(N)=O)c1ccc(Oc2ccccc2)cc1
3,118 to 120 °C,COC(=O)CCS(=O)(=O)c1ccc(C=C(C)c2ccc3c(c2)C(C)(C)CCC3(C)C)cc1
4,111 to 112 °C,CC(C)(C)OC(=O)/C(=C/c1ccc2ccccc2c1)C(=O)c1ccccc1O
5,278 to 280 °C,O=C1CCC(N2Cc3cc(CNC(=O)Nc4ccc(Br)cc4)ccc3C2=O)C(=O)N1 (centres undefined)
6,99.5 to 100 °C,CS(=O)(=O)Nc1cc(C(O)CNCCCCCCOCCCCOc2ccc3ccccc3c2)ccc1O (centres undefined)
7,219 to 221 °C,CSc1ccc(-c2nc(SC)c(C#N)c(=O)n2-c2ccc(F)cc2)cc1
8,113 to 115 °C,CC(C)(C)NC(=O)[C@@H]1C[C@H](O)CN1C(=O)[C@@H](O)[C@H](Cc1ccccc1)NC(=O)[C@H](CC(N)=O)NC(=O)OCc1ccccc1
9,227 °C,O=C(N[C@H]1CC[C@H](CCN2CCN(c3nccc4c3CCO4)CC2)CC1)c1ccc2ncccc2c1
10,82 to 83 °C,N#CCCNC(=O)c1cccc(-c2cccc(Oc3ccccc3Cl)n2)c1
11,173 to 174 °C,CCOC(=O)c1ccc(/C=C(\C)c2ccc3c(c2)C(C)(C)C(=O)CC3(C)C)cc1
12,212 to 214 °C,c1ccc(CCN2CCN(c3n[nH]c4c3Cc3ccccc3-4)CC2)cc1
13,205 to 207 °C,COc1ccccc1C(=O)Nc1cc(C(=O)NCc2ccccc2)ccn1
14,135 to 141 °C,Cn1nc(-c2ccccc2)c(S(=O)(=O)c2ccccc2)c1-c1ccccc1
15,97 to 99 °C,Cc1cccc(C=Cc2c(C(C)C)nc(C(C)C)c(CO)c2-c2ccc(F)cc2)c1
16,155 to 156 °C,Cc1ccc(C(=O)Nc2ccc(-n3nc(C(F)(F)F)cc3C(F)(F)F)cc2)c(Cl)n1
17,125 to 127 °C,NC(=O)N(O)CC=Cc1cccc(F)c1Sc1ccc(Cl)cc1
18,98 to 100 °C,Cc1nc(-c2ccc(C(F)(F)F)cc2)oc1COc1ccc(CCC(=O)O)cc1
19,93 to 95 °C,Cc1ccc(S(=O)(=O)N[C@@H]2CCCC[C@H]2N)cc1 (relative stereo)
20,179 to 181 °C,O=C(Nc1ccc2c(c1)CCC(CCl)=C2)c1ccc(-c2ccc(Cl)cc2)cc1
21,144 to 146 °C,COc1ccc([C@@H]2CN(C)CC[C@@H]2NC(=S)c2ccc(C)cc2)cc1OC (relative stereo)
22,180 to 182 °C,COc1ccc(C(Cc2ccncc2)c2ccc(C(N)=O)cc2)cc1OC1CCCC1 (centres undefined)
23,> 250 °C,O=C(Nc1nccs1)c1ccc(CN2C(=O)C3(COc4cc5c(cc43)CCO5)c3ccccc32)cc1 (centres undefined)
